Test results from the NIST ThermoML archive (doi:10.1016/j.jct.2018.12.028).

Experiment: wn = mass fraction of the nth substance listed
Conditions: 101.3 kPa, Liquid; for viscosity: Falling or rolling sphere viscometry; for mass density: Vibrating tube method

COCCO [2-methoxyethan-1-ol] + NCCO
Conditions	mass density [kg/m3]	viscosity [mPa·s]
293.15 K, w2 = 0	964.7	1.692
293.15 K, w2 = 0.1	971.8	2.321
293.15 K, w2 = 0.3	984.5	4.371
293.15 K, w2 = 0.5	995.6	7.952
293.15 K, w2 = 0.7	1005.1	13
293.15 K, w2 = 0.898	1013.4	20.5
298.15 K, w2 = 0	960.1	1.527
298.15 K, w2 = 0.1	967.3	2.065
298.15 K, w2 = 0.3	980.2	3.765
298.15 K, w2 = 0.5	991.4	6.634
298.15 K, w2 = 0.7	1001	10.51
298.15 K, w2 = 0.898	1009.4	16.17
303.15 K, w2 = 0	955.5	1.386
303.15 K, w2 = 0.1	962.8	1.849
303.15 K, w2 = 0.3	975.8	3.269
303.15 K, w2 = 0.5	987.1	5.598
303.15 K, w2 = 0.7	996.9	8.619
303.15 K, w2 = 0.898	1005.4	12.97
308.15 K, w2 = 0	950.9	1.262
308.15 K, w2 = 0.1	958.3	1.664
308.15 K, w2 = 0.3	971.5	2.861
308.15 K, w2 = 0.5	982.9	4.773
308.15 K, w2 = 0.7	992.8	7.158
308.15 K, w2 = 0.898	1001.4	10.55
313.15 K, w2 = 0	946.2	1.155
313.15 K, w2 = 0.1	953.7	1.504
313.15 K, w2 = 0.3	967.1	2.521
313.15 K, w2 = 0.5	978.6	4.105
313.15 K, w2 = 0.7	988.6	6.011
313.15 K, w2 = 0.898	997.3	8.699
318.15 K, w2 = 0	941.5	1.061
318.15 K, w2 = 0.1	949.1	1.367
318.15 K, w2 = 0.3	962.7	2.235
318.15 K, w2 = 0.5	974.3	3.561
318.15 K, w2 = 0.7	984.4	5.098
318.15 K, w2 = 0.898	993.3	7.265
323.15 K, w2 = 0	936.7	0.9781
323.15 K, w2 = 0.1	944.5	1.246
323.15 K, w2 = 0.3	958.2	1.992
323.15 K, w2 = 0.5	970	3.112
323.15 K, w2 = 0.7	980.3	4.367
323.15 K, w2 = 0.898	989.2	6.134
328.15 K, w2 = 0	932	0.905
328.15 K, w2 = 0.1	939.9	1.141
328.15 K, w2 = 0.3	953.8	1.786
328.15 K, w2 = 0.5	965.7	2.741
328.15 K, w2 = 0.7	976	3.775
328.15 K, w2 = 0.898	985.1	5.229
333.15 K, w2 = 0	927.2	0.8397
333.15 K, w2 = 0.1	935.2	1.049
333.15 K, w2 = 0.3	949.2	1.609
333.15 K, w2 = 0.5	961.3	2.427
333.15 K, w2 = 0.7	971.8	3.288
333.15 K, w2 = 0.898	981	4.503
338.15 K, w2 = 0	922.3	0.7818
338.15 K, w2 = 0.1	930.4	0.967
338.15 K, w2 = 0.3	944.7	1.456
338.15 K, w2 = 0.5	956.9	2.161
338.15 K, w2 = 0.7	967.5	2.884
338.15 K, w2 = 0.898	976.9	3.91
343.15 K, w2 = 0	917.4	0.7298
343.15 K, w2 = 0.1	925.7	0.8945
343.15 K, w2 = 0.3	940.1	1.324
343.15 K, w2 = 0.5	952.5	1.936
343.15 K, w2 = 0.7	963.3	2.546
343.15 K, w2 = 0.898	972.7	3.42
348.15 K, w2 = 0	912.4	0.6834
348.15 K, w2 = 0.1	920.8	0.8302
348.15 K, w2 = 0.3	935.5	1.207
348.15 K, w2 = 0.5	948	1.741
348.15 K, w2 = 0.7	958.9	2.261
348.15 K, w2 = 0.898	968.5	3.011
353.15 K, w2 = 0	907.4	0.6409
353.15 K, w2 = 0.1	916	0.7712
353.15 K, w2 = 0.3	930.8	1.105
353.15 K, w2 = 0.5	943.5	1.568
353.15 K, w2 = 0.7	954.6	2.019
353.15 K, w2 = 0.898	964.3	2.67
